According to US7101533B2, “Agent for inducing receptor potential” (Kabushiki Kaisha Hayashibara Seibutsu Kagaku Kenkyujo, priority 2002, dated 2006):

Tested on: retinal nerve cells
Test: intracellular calcium experimental method in cultured chick embryo retinal cells with photostimulation (Fluo-4 fluorescence and intracellular potential)
Type: cell-based
Text: All the above polymethine organic dye compounds can be obtained in the desired amount either by the method disclosed in “Kanko-Shikiso” (Photosynthetic Dyes), pp. 11–31, edited by Masaaki Hayami, published by Sangyo Tosho Publisher on Oct. 17, 1997; or in accordance therewith. In case the compounds are commercially available, they can be optionally purified prior to use. Evaluation of whether organic dye compounds evoke receptor potential in response to photostimulation in the optic nerve can be determined in accordance with the intracellular calcium experiment method disclosed in “Jikken-Igaku” (Experimental Medicine), Vol. 7, No. 6, edited by Hideaki Karaki et al., published on Apr. 5, 1989 by Yodosha, Co., Ltd., Tokyo, Japan, with a modification that an organic dye compound to be tested coexists in animal retinal cells cultured in a nutrient culture medium containing a fluorescent calcium indicator, followed by detecting the intensity of fluorescence emitted from the indicator or of the electric potential generated intracellularly. […]
Thereafter, Fluo-4 acetoxymethyl ester, commercialized by Molecular Probe, Oregon, U.S.A., a fluorescent calcium indicator, was added to each well of the culture plates to give a concentration of 10 μM, incubated at 37° C. for 30 min, and further incubated for another 30 min similarly as above except for omitting Fluo-4 acetoxymethyl ester. […] The organic dye compounds in Table 1 were respectively dissolved in dimethylsulfoxide and irradiated with a light having a wavelength of 470 to 490 nm to excite Fluo-4 acetoxymethyl ester before or after being added to each culture in each well to give a concentration of 0.0005 to 0.5 μg/ml, followed by detecting the intensity of fluorescence and the intracellular potential at a wavelength of around 510 to 550 nm emitted from the excited Fluo-4 acetoxymethyl ester. […]

With CCCC1=NN(c2ccc(S(=O)(=O)[O-])cc2)C(=O)C1=CC=C(C=Cc1c(CCC)nn(-c2ccc(S(=O)(=O)[O-])cc2)c1[O-])c1ccccc1.[Na+].[Na+].[Na+] [Chemical Formula 14] the “Fluorescent intensity With calcicludine” value (as above, with 2.5 μM of calcicludine (antagonist of L-, N-, P-type high-threshold calcium channels)) was “Unchanged”, the “Fluorescent intensity Without calcicludine” value (chick embryo retinal nerve cells loaded with Fluo-4 acetoxymethyl ester, dye 0.0005 to 0.5 μg/ml, light 470 to 490 nm, emission around 510 to 550 nm, no calcicludine) was “Increased” and the Intracellular potential (receptor potential observed as intracellular potential, dye 0.0005 to 0.5 μg/ml, light 470 to 490 nm, absence of calcicludine) was “Detected”.
